In PubChem BioAssay (NCI):
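In this assay, cells in 96-well plates receive the compound at five concentrations for 48 hours. Endpoints are linearly interpolated between the surrounding concentrations. At the GI50, growth is halved. TGI: concentration producing complete growth inhibition.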

Assays:
Test in all cases: NCI anticancer screen, dose series, 48 h
SW-620 colon = system: SW-620 colon
HS 578T breast = system: HS 578T breast
A498 renal = system: A498 renal
SNB-19 CNS = system: SNB-19 CNS
LOX IMVI melanoma = system: LOX IMVI melanoma
EKVX NSCLC = system: EKVX NSCLC
SF-268 CNS = system: SF-268 CNS
SK-OV-3 ovarian = system: SK-OV-3 ovarian
OVCAR-5 ovarian = system: OVCAR-5 ovarian
SF-539 CNS = system: SF-539 CNS
HOP-92 NSCLC = system: HOP-92 NSCLC
HCT-15 colon = system: HCT-15 colon
OVCAR-3 ovarian = system: OVCAR-3 ovarian
SK-MEL-2 melanoma = system: SK-MEL-2 melanoma
IGROV1 ovarian = system: IGROV1 ovarian
SN12C renal = system: SN12C renal
SK-MEL-5 melanoma = system: SK-MEL-5 melanoma
RXF 393 renal = system: RXF 393 renal
MDA-MB-231 breast = system: MDA-MB-231 breast
BT-549 breast = system: BT-549 breast
HCT-116 colon = system: HCT-116 colon
M14 melanoma = system: M14 melanoma
MCF7 breast = system: MCF7 breast
CCRF-CEM leukemia = system: CCRF-CEM leukemia
UACC-62 melanoma = system: UACC-62 melanoma
U251 CNS = system: U251 CNS
NCI-H460 lung = system: NCI-H460 lung
HOP-62 NSCLC = system: HOP-62 NSCLC
ACHN renal = system: ACHN renal
PC-3 prostate = system: PC-3 prostate
OVCAR-4 ovarian = system: OVCAR-4 ovarian
CAKI-1 renal = system: CAKI-1 renal
SK-MEL-28 melanoma = system: SK-MEL-28 melanoma
HCC-2998 colon = system: HCC-2998 colon
COLO 205 colon = system: COLO 205 colon
786-0 renal = system: 786-0 renal
SNB-75 CNS = system: SNB-75 CNS
KM12 colon = system: KM12 colon
UACC-257 melanoma = system: UACC-257 melanoma
UO-31 renal = system: UO-31 renal
T-47D breast = system: T-47D breast
A549 NSCLC = system: A549 NSCLC
K-562 leukemia = system: K-562 leukemia
NCI/ADR-RES ovarian = system: NCI/ADR-RES ovarian
NCI-H522 lung = system: NCI-H522 lung
MOLT-4 leukemia = system: MOLT-4 leukemia
NCI-H23 lung = system: NCI-H23 lung
NCI-H226 lung = system: NCI-H226 lung
HT29 colon = system: HT29 colon
MALME-3M melanoma = system: MALME-3M melanoma
HL-60(TB) leukemia = system: HL-60(TB) leukemia
TK-10 renal = system: TK-10 renal
MDA-MB-435 = system: MDA-MB-435
DU-145 prostate = system: DU-145 prostate
RPMI-8226 leukemia = system: RPMI-8226 leukemia
OVCAR-8 ovarian = system: OVCAR-8 ovarian

In the case of `O=c1c2c3c(sc2n2c(CCl)nnc2n1Cc1ccccc1)CCCC3`, the GI50 (SW-620 colon) was 1.76 µM, the TGI (SW-620 colon) was 3.51 µM and the GI50 (HS 578T breast) was 1.92 µM. For the same compound, the TGI (HS 578T breast) was 5.9 µM, the GI50 (A498 renal) was 9.17 µM and the TGI (A498 renal) was 23.1 µM. For the same compound, the GI50 (SNB-19 CNS) was 15.8 µM, the TGI (SNB-19 CNS) was 32.1 µM and the GI50 (LOX IMVI melanoma) was 0.284 µM. It also gave a TGI (LOX IMVI melanoma) of 1.32 µM, a GI50 (EKVX NSCLC) of 7.96 µM and a TGI (EKVX NSCLC) of 27.9 µM. The GI50 (SF-268 CNS) was 1.83 µM, the TGI (SF-268 CNS) was 3.72 µM and the GI50 (SK-OV-3 ovarian) was 13.4 µM. It also gave a TGI (SK-OV-3 ovarian) of 48.8 µM, a GI50 (OVCAR-5 ovarian) of 2.34 µM and a TGI (OVCAR-5 ovarian) of 5.23 µM. It also gave a GI50 (SF-539 CNS) of 3.24 µM, a TGI (SF-539 CNS) of 10.1 µM and a GI50 (HOP-92 NSCLC) of 1.83 µM. The TGI (HOP-92 NSCLC) was 3.8 µM, the GI50 (HCT-15 colon) was 1.86 µM and the TGI (HCT-15 colon) was 5.34 µM. It also gave a GI50 (OVCAR-3 ovarian) of 1.76 µM, a TGI (OVCAR-3 ovarian) of 3.21 µM and a GI50 (SK-MEL-2 melanoma) of 1.53 µM. For the same compound, the TGI (SK-MEL-2 melanoma) was 2.98 µM, the GI50 (IGROV1 ovarian) was 0.0645 µM and the TGI (IGROV1 ovarian) was 1.53 µM. It also gave a GI50 (SN12C renal) of 1.62 µM, a TGI (SN12C renal) of 3.86 µM and a GI50 (SK-MEL-5 melanoma) of 2.94 µM. For the same compound, the TGI (SK-MEL-5 melanoma) was 7.62 µM, the GI50 (RXF 393 renal) was 1.98 µM and the TGI (RXF 393 renal) was 4.17 µM. The GI50 (MDA-MB-231 breast) was 2.22 µM, the TGI (MDA-MB-231 breast) was 5.23 µM and the GI50 (BT-549 breast) was 2.41 µM. The TGI (BT-549 breast) was 9.44 µM, the GI50 (HCT-116 colon) was 1.51 µM and the TGI (HCT-116 colon) was 3.13 µM. For the same compound, the GI50 (M14 melanoma) was 1.79 µM, the TGI (M14 melanoma) was 5.43 µM and the GI50 (MCF7 breast) was 1.75 µM. It also gave a TGI (MCF7 breast) of 4.54 µM, a GI50 (CCRF-CEM leukemia) of 0.434 µM and a GI50 (UACC-62 melanoma) of 1.99 µM. For the same compound, the TGI (UACC-62 melanoma) was 5.64 µM, the GI50 (U251 CNS) was 1.6 µM and the TGI (U251 CNS) was 3.03 µM. The GI50 (NCI-H460 lung) was 2.58 µM, the TGI (NCI-H460 lung) was 7.98 µM and the GI50 (HOP-62 NSCLC) was 3.55 µM. It also gave a TGI (HOP-62 NSCLC) of 7.87 µM, a GI50 (ACHN renal) of 1.6 µM and a TGI (ACHN renal) of 2.96 µM. The GI50 (PC-3 prostate) was 1.85 µM, the TGI (PC-3 prostate) was 4.01 µM and the GI50 (OVCAR-4 ovarian) was 2.79 µM. It also gave a TGI (OVCAR-4 ovarian) of 7.74 µM, a GI50 (CAKI-1 renal) of 2.9 µM and a TGI (CAKI-1 renal) of 7.79 µM. The GI50 (SK-MEL-28 melanoma) was 1.7 µM, the TGI (SK-MEL-28 melanoma) was 3.16 µM and the GI50 (HCC-2998 colon) was 1.74 µM. It also gave a TGI (HCC-2998 colon) of 3.39 µM, a GI50 (COLO 205 colon) of 1.94 µM and a TGI (COLO 205 colon) of 4.05 µM. The GI50 (786-0 renal) was 2.01 µM, the TGI (786-0 renal) was 3.75 µM and the GI50 (SNB-75 CNS) was 4.51 µM. For the same compound, the TGI (SNB-75 CNS) was 9.03 µM, the GI50 (KM12 colon) was 2.39 µM and the TGI (KM12 colon) was 6.05 µM. It also gave a GI50 (UACC-257 melanoma) of 2.12 µM, a TGI (UACC-257 melanoma) of 4.29 µM and a GI50 (UO-31 renal) of 1.51 µM. For the same compound, the TGI (UO-31 renal) was 2.88 µM, the GI50 (T-47D breast) was 2.5 µM and the TGI (T-47D breast) was 6.5 µM. The GI50 (A549 NSCLC) was 2.79 µM, the TGI (A549 NSCLC) was 7.3 µM and the GI50 (K-562 leukemia) was 2.33 µM. The TGI (K-562 leukemia) was 5.39 µM, the GI50 (NCI/ADR-RES ovarian) was 3.84 µM and the TGI (NCI/ADR-RES ovarian) was greater than 51.1 µM. The GI50 (NCI-H522 lung) was 1.89 µM, the TGI (NCI-H522 lung) was 4.17 µM and the GI50 (MOLT-4 leukemia) was 3.62 µM. The TGI (MOLT-4 leukemia) was 17.1 µM, the GI50 (NCI-H23 lung) was 2.27 µM and the TGI (NCI-H23 lung) was 8.43 µM. It also gave a GI50 (NCI-H226 lung) of 1.74 µM, a TGI (NCI-H226 lung) of 4.37 µM and a GI50 (HT29 colon) of 1.95 µM. For the same compound, the TGI (HT29 colon) was 4.05 µM, the GI50 (MALME-3M melanoma) was 3.48 µM and the TGI (MALME-3M melanoma) was 10.7 µM. For the same compound, the GI50 (HL-60(TB) leukemia) was 2.16 µM, the TGI (HL-60(TB) leukemia) was greater than 19.8 µM and the GI50 (TK-10 renal) was 5.25 µM. For the same compound, the TGI (TK-10 renal) was 10.7 µM, the GI50 (MDA-MB-435) was 3.4 µM and the TGI (MDA-MB-435) was 11 µM. For the same compound, the GI50 (DU-145 prostate) was 2.45 µM, the TGI (DU-145 prostate) was 6.18 µM and the GI50 (RPMI-8226 leukemia) was 1.97 µM. It also gave a TGI (RPMI-8226 leukemia) of 5.05 µM, a GI50 (OVCAR-8 ovarian) of 2.28 µM and a TGI (OVCAR-8 ovarian) of 6.19 µM.
